Structures are written as SMILES.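 A five-concentration, 48-hour dose response in 96-well plates underlies each endpoint, interpolated linearly between surrounding concentrations. GI50 = concentration required for 50% inhibition of growth. TGI is the concentration that stops growth completely.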

Data on 21 compounds can be found in PubChem BioAssay (NCI).

Among the test systems are A498 renal; ACHN renal; BT-549 breast; CAKI-1 renal; CCRF-CEM leukemia; HCT-116 colon; K-562 leukemia; MCF7 breast; NCI-H226 lung; SF-268 CNS; SF-295 CNS; SK-MEL-5 melanoma.
Common to all, as to experiment: NCI tumour cell line growth inhibition, 48 h

With `c1ccc(-c2nn(-c3ccccc3)[n+](-c3ccccc3)n2)cc1`, the TGI in the assay with A498 renal was > 100 µM; with ACHN renal, > 100 µM; in the assay with BT-549 breast, > 100 µM; in the assay on CAKI-1 renal it was > 100 µM; in the assay on CCRF-CEM leukemia, > 39.8 µM; in the assay on HCT-116 colon it was > 56.7 µM. Also, the TGI with K-562 leukemia was > 100 µM; with MCF7 breast it was 25.9 µM; with NCI-H226 lung, > 100 µM; in the assay with SF-268 CNS, > 38.8 µM; in the assay with SF-295 CNS, > 100 µM; in the assay with SK-MEL-5 melanoma, 14.1 µM.

On to `CCC(C)C(=O)c1c(O)c(C/C=C(\C)CCC=C(C)C)c(O)c2c(C(O)CC)cc(=O)oc12` (stereo unspecified), for which the TGI in the assay with A498 renal turned out to be 6.15 µM; in the assay with ACHN renal, 8.38 µM; in the assay with CAKI-1 renal it was 12.1 µM; in the assay with CCRF-CEM leukemia, 3.44 µM; in the assay with HCT-116 colon, 2.21 µM; in the assay on K-562 leukemia it was 3.31 µM. In addition, the TGI worked out at 9.11 µM in the assay with NCI-H226 lung, 10.8 µM with SF-268 CNS, 7.82 µM in the assay with SF-295 CNS and 2.74 µM with SK-MEL-5 melanoma.

Regarding `CC[n+]1c(/C=C/c2ccc(N(CCCl)CCCl)cc2)ccc2cc(NC(=O)/C=C/c3ccccc3)ccc21`, the TGI in the assay on A498 renal is 27.4 µM; in the assay with ACHN renal, > 56.6 µM; with BT-549 breast, 1.58 µM; in the assay on CAKI-1 renal, 19.2 µM; in the assay on CCRF-CEM leukemia, 0.831 µM; in the assay on HCT-116 colon, 1.34 µM. The TGI was 0.235 µM in the assay with K-562 leukemia; 1.24 µM in the assay with MCF7 breast; 2.89 µM in the assay with NCI-H226 lung; 1.96 µM in the assay with SF-268 CNS; 7.81 µM in the assay with SF-295 CNS; 0.632 µM in the assay on SK-MEL-5 melanoma.

As to `Cn1c(-c2ccc(/C=N\N3CCN(/N=C/c4ccc(-c5c[n+]6ccccc6n5C)cc4)CC3)cc2)c[n+]2ccccc12`, the TGI in the assay on A498 renal is 42.8 µM; in the assay with ACHN renal, > 100 µM; in the assay with BT-549 breast, > 100 µM; in the assay on CAKI-1 renal it was > 100 µM; in the assay on CCRF-CEM leukemia it was > 100 µM; in the assay with HCT-116 colon, > 100 µM. The TGI in the assay with MCF7 breast was > 100 µM; with NCI-H226 lung it was > 100 µM; in the assay on SF-268 CNS, > 100 µM; in the assay with SF-295 CNS, 78.6 µM; with SK-MEL-5 melanoma, > 100 µM.

Turning to `COc1ccc(CC(C)N)cc1` (stereo unspecified), the TGI in the assay with A498 renal, in the assay on ACHN renal, in the assay with CAKI-1 renal, with CCRF-CEM leukemia, in the assay on HCT-116 colon and with K-562 leukemia was > 100 µM throughout. Besides, the TGI in the assay with NCI-H226 lung, with SF-268 CNS, with SF-295 CNS and with SK-MEL-5 melanoma was > 100 µM in each case.

Turning to `CC1(C)N=C(N)N=C(N)N1c1cccc(OCCOc2ccc([N+](=O)[O-])cc2)c1`, the TGI in the assay with A498 renal, in the assay on ACHN renal, in the assay with BT-549 breast, with CAKI-1 renal, with CCRF-CEM leukemia and with HCT-116 colon was > 100 µM each time. For the same compound, the TGI with K-562 leukemia, with MCF7 breast, in the assay on SF-268 CNS, with SF-295 CNS and in the assay with SK-MEL-5 melanoma was > 100 µM each time.

Turning to `COc1cc(C2c3cc4c(cc3[C@@H](Nc3cccc(C(C)=O)c3)C3COC(=O)[C@H]23)OCO4)cc(OC)c1O` (stereo partly specified), the TGI is 1.6 µM in the assay on A498 renal; 2.13 µM in the assay on CAKI-1 renal; 0.231 µM in the assay with CCRF-CEM leukemia; 7.81 µM in the assay with HCT-116 colon; 6.1 µM with K-562 leukemia; 28.2 µM in the assay on MCF7 breast. Further, the TGI in the assay on NCI-H226 lung is 1.99 µM; with SF-268 CNS, 13.1 µM; in the assay on SF-295 CNS it was 1.39 µM; in the assay with SK-MEL-5 melanoma, 2.37 µM.

For the compound `O=[N+]([O-])c1cn[n+]([O-])c2ccccc12`, the TGI in the assay on A498 renal turned out to be 40.1 µM; with ACHN renal it was 3.83 µM; with BT-549 breast, 18.8 µM; with CAKI-1 renal it was 8.1 µM; in the assay on HCT-116 colon it was 2.62 µM; in the assay on MCF7 breast it was 50.1 µM. In addition, the TGI was determined as 27.3 µM in the assay on NCI-H226 lung, 17.9 µM in the assay with SF-268 CNS, 17.6 µM in the assay with SF-295 CNS and 26.7 µM in the assay with SK-MEL-5 melanoma.

Take `Brc1ccccc1-c1ncc(-c2ccccc2)o1`: the TGI with A498 renal is 60.5 µM; in the assay on ACHN renal it was > 100 µM; with BT-549 breast it was > 100 µM; in the assay on CAKI-1 renal, > 100 µM; with CCRF-CEM leukemia, 54.7 µM; in the assay on HCT-116 colon it was > 100 µM. For the same compound, the TGI is > 100 µM in the assay on K-562 leukemia; > 100 µM in the assay on MCF7 breast; > 100 µM with SF-268 CNS; > 100 µM in the assay with SF-295 CNS; 34.5 µM with SK-MEL-5 melanoma.

On to `COc1ccc(NC(=O)/C(CC2=Nc3ccc([N+](=O)[O-])cc3NC2O)=N\NC(=O)C[N+](C)(C)C)c(OC)c1` (stereo unspecified), for which the TGI in the assay with ACHN renal, in the assay on BT-549 breast, with CAKI-1 renal, in the assay with CCRF-CEM leukemia, with HCT-116 colon and in the assay with MCF7 breast was > 100 µM each time. In addition, the TGI was > 100 µM in the assay with NCI-H226 lung, > 100 µM with SF-268 CNS, > 100 µM in the assay with SF-295 CNS and 96.3 µM in the assay on SK-MEL-5 melanoma.

For `COc1ccc(-c2cc(N3CCN(c4ccccc4)CC3)c(C#N)c(=O)o2)cc1`, the TGI in the assay on A498 renal is 64.9 µM; in the assay with ACHN renal it was > 100 µM; in the assay with CAKI-1 renal, 53.9 µM; in the assay on CCRF-CEM leukemia, > 100 µM; in the assay on HCT-116 colon, > 100 µM; in the assay on K-562 leukemia, > 100 µM. In addition, the TGI was 9.94 µM in the assay on NCI-H226 lung, 49.3 µM in the assay with SF-268 CNS, 59.5 µM in the assay with SF-295 CNS and > 100 µM in the assay on SK-MEL-5 melanoma.

`Cc1ccc(S(N)(=O)=O)cc1`: the TGI with A498 renal, in the assay on ACHN renal, in the assay with BT-549 breast, in the assay with CCRF-CEM leukemia, in the assay on HCT-116 colon and in the assay with K-562 leukemia was > 1000 µM throughout. In addition, the TGI with MCF7 breast, in the assay on NCI-H226 lung, in the assay with SF-268 CNS, in the assay with SF-295 CNS and in the assay on SK-MEL-5 melanoma was > 1000 µM each time.

On to `CN(C)c1ccc(N=Nc2ccccn2)cc1`, for which the TGI in the assay on A498 renal is 94.7 µM; in the assay on ACHN renal, > 100 µM; in the assay with BT-549 breast, > 100 µM; with CAKI-1 renal, > 100 µM; with CCRF-CEM leukemia, 91.2 µM; with HCT-116 colon it was > 100 µM. The TGI in the assay on K-562 leukemia was > 100 µM; in the assay on MCF7 breast it was 14.6 µM; in the assay on NCI-H226 lung it was > 100 µM; in the assay with SF-268 CNS it was > 100 µM; with SF-295 CNS, > 100 µM; in the assay with SK-MEL-5 melanoma, > 100 µM.

As to `N#Cc1c(NC(=S)NC(=O)c2ccccc2)nc2c(c1-c1ccccc1)CCCC2`, the TGI in the assay with BT-549 breast is 96.1 µM; with CAKI-1 renal, > 100 µM; with CCRF-CEM leukemia it was > 100 µM; with HCT-116 colon, > 100 µM; in the assay with K-562 leukemia, > 100 µM; with MCF7 breast, > 100 µM. Besides, the TGI in the assay with SF-268 CNS is 27.2 µM; in the assay with SF-295 CNS, > 100 µM; in the assay with SK-MEL-5 melanoma, > 100 µM.

Take `NCc1ccccc1C1CSCSC1`: the TGI with ACHN renal, in the assay on CCRF-CEM leukemia, in the assay on HCT-116 colon, in the assay on K-562 leukemia, with NCI-H226 lung and in the assay on SF-268 CNS was > 100 µM in each case. The TGI with SF-295 CNS and in the assay on SK-MEL-5 melanoma was > 100 µM each time.

On to `CC(C)(Br)C1(O)CCCN1C(=O)c1ccccc1` (stereo unspecified), for which the TGI in the assay with A498 renal, with ACHN renal, with CCRF-CEM leukemia, in the assay on HCT-116 colon, with K-562 leukemia and in the assay with SF-268 CNS was > 100 µM each time. Also, the TGI in the assay with SF-295 CNS and in the assay with SK-MEL-5 melanoma was > 100 µM throughout.

`C=C1C(=O)OC2C1CC(O)/C(C)=C\CCC1(C)OC21` (stereo unspecified): the TGI in the assay with A498 renal is > 100 µM; in the assay with ACHN renal it was > 100 µM; in the assay on BT-549 breast it was 43.2 µM; in the assay on CCRF-CEM leukemia it was > 100 µM; in the assay on HCT-116 colon, > 100 µM; with MCF7 breast it was 86.1 µM. For the same compound, the figures for the TGI with SF-268 CNS, in the assay with SF-295 CNS and with SK-MEL-5 melanoma were 86.6 µM, > 100 µM and 47.5 µM, respectively.

Turning to `C#CC[C@@H]1C[C@]2(C)[C@H]3CC=C4[C@H]5CC(C)(C)CC[C@]5(C(=O)NCCCCN)CC[C@@]4(C)[C@]3(C)CC[C@H]2C(C)(C)[C@H]1OC(C)=O`, the GI50 in the assay with A498 renal is 1.8 µM; with ACHN renal, 1.73 µM; with CAKI-1 renal, 1.54 µM; in the assay on CCRF-CEM leukemia, 1.93 µM; with K-562 leukemia, 1.91 µM; in the assay on SF-268 CNS it was 1.73 µM. In the assay on SF-295 CNS, the GI50 was 1.82 µM. Moreover, the TGI with A498 renal was 3.21 µM; in the assay on ACHN renal, 3.11 µM; with CAKI-1 renal, 2.9 µM; in the assay on CCRF-CEM leukemia, 4.55 µM; in the assay on K-562 leukemia, 6.16 µM; in the assay on SF-268 CNS, 3.62 µM. In the assay with SF-295 CNS, the TGI was determined as 3.29 µM.

In the case of `NCc1ccc(C(=O)O)cc1`, the TGI in the assay on A498 renal, in the assay on ACHN renal, in the assay with BT-549 breast, in the assay with CAKI-1 renal, in the assay on HCT-116 colon and in the assay with K-562 leukemia was > 100 µM throughout. The TGI in the assay with NCI-H226 lung, with SF-268 CNS, in the assay with SF-295 CNS and with SK-MEL-5 melanoma was > 100 µM throughout.

`CCO/N=[N+](\[O-])N(CC)CC`: the TGI with A498 renal, with ACHN renal, in the assay on CAKI-1 renal, in the assay with CCRF-CEM leukemia, in the assay with HCT-116 colon and in the assay with K-562 leukemia was > 100 µM in each case. The TGI in the assay on NCI-H226 lung, in the assay on SF-268 CNS, in the assay with SF-295 CNS and in the assay on SK-MEL-5 melanoma was > 100 µM in each case.

As for `COc1cc[n+](C)cc1`, the TGI with CCRF-CEM leukemia, with HCT-116 colon, with K-562 leukemia, in the assay on MCF7 breast, in the assay with NCI-H226 lung and in the assay with SF-268 CNS was > 100 µM each time. The TGI in the assay on SF-295 CNS and in the assay with SK-MEL-5 melanoma was > 100 µM in each case.
